One assay concerns the target LXR α LBD protein (Homo sapiens (Human), UniProt Q13133). As to the kind of experiment: LXR α radioligand binding assay (SPA, [3H]T0901317 competition).
The target of another assay is LBD of LXRα (Homo sapiens (Human), UniProt Q13133). The experiment in a line: LXR luciferase transcriptional reporter gene assay, LXRα. Format: cell-based. The conditions noted are these: HEK293 cells, Gal4-LXRα LBD, 16 h, read-out: LXRα CELL EC50. For orientation: In a reporter assay the amount or activity of a reporter protein is the signal.
LBD of LXRα, sequence (Q13133 209-447): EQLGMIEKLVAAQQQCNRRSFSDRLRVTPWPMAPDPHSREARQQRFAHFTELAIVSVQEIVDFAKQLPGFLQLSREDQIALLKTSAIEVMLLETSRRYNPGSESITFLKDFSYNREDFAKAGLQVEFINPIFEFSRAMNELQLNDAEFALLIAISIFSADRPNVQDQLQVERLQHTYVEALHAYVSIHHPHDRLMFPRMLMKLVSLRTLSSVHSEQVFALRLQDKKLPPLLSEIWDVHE
The next assay has as its target LXR β LBD protein (Homo sapiens (Human), UniProt P55055). The experiment in a line: LXR β radioligand binding assay (SPA, [3H]T0901317 competition). Particulars: competition with 15 nM [3H]T0901317, LXRβ LBD.
For assay [1], the target named is T1, LBD of LXRβ (Homo sapiens (Human), UniProt P55055). As to the kind of experiment: cell-based.
T1 sequence (P55055 222-460): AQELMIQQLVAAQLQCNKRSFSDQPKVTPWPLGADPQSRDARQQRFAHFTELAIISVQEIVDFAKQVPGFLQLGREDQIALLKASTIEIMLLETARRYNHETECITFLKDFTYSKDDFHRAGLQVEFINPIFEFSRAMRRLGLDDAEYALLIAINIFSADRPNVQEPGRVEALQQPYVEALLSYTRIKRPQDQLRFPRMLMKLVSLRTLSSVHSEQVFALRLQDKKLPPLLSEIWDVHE
In assay [2] the target is T1, LBD of LXRβ.
The mark [3] stands for this setting: competition with 15 nM [3H]T0901317, LXRα LBD.

Read-outs that look alike come from different tables or passages of the source. Some results are limits rather than exact numbers.

In general, Ki refers to the dissociation constant of the complex between target and ligand, obtained from inhibition or displacement. For orientation: EC50 means the concentration at which the effect is half-maximal.

LXR α LBD protein, sequence (Q13133 209-447): as the sequence (Q13133 209-447) above
LXR β LBD protein, sequence (P55055 222-460): as the sequence (P55055 222-460) above

In the case of `CNC(=O)c1cnc(N2CCn3c(nc4cc(CO)c(S(C)(=O)=O)cc43)[C@H]2C(C)C)nc1C(F)(F)F` (single isomer, unassigned) [Compound E16a], the Ki on LXR α LBD protein (read-out: LXRα BINDING Ki) is above 3.33 µM. Also, the EC50 at LBD of LXRα was above 20 µM.
Turning to `CC(C)[C@@H]1c2nc3cc(CO)c(S(C)(=O)=O)cc3n2CCN1c1ncc(C(=O)O)c(C(F)(F)F)n1` (single isomer, unassigned) [Compound E14a], the Ki at LXR α LBD protein (read-out: LXRα BINDING Ki) was above 3.33 µM; on LXR β LBD protein it was above 2.5 µM. The EC50 on LBD of LXRα is above 20 µM; on LBD of LXRβ [1], 7.54 µM.
With `CNC(=O)c1cnc(N2CCn3c(nc4cc(CO)c(S(C)(=O)=O)cc43)[C@@H]2C(C)C)nc1C(F)(F)F` (single isomer, unassigned) [Compound E16b], the Ki on LXR α LBD protein (read-out: LXRα BINDING Ki) is above 3.33 µM. Moreover, on LBD of LXRα, the concentration giving a half-maximal response (EC50) is above 20 µM.
Regarding `CC(C)C1c2nc3ccc(S(C)(=O)=O)cc3n2CCN1c1ncc(C(N)=O)c(C(F)(F)F)n1` (racemic) [Compound E5, 2-(1-isopropyl-7-(methylsulfonyl)-3,4-dihydrobenzo[4,5]imidazo[1,2-a]pyrazin-2(1H)-yl)-4-(trifluoromethyl)pyrimidine-5-carboxamide], the Ki at LXR α LBD protein (setting [3]) is above 3.33 µM; at LXR β LBD protein, above 2.5 µM. Also, the EC50 was above 20 µM on LBD of LXRα and 2.69 µM at LBD of LXRβ [1].
In the same order, the values of `CCOC(=O)c1cnc(N2CCn3c(nc4ccc(S(C)(=O)=O)cc43)C2C(C)C)nc1C(F)(F)F` (racemic) [Compound E3, Ethyl 2-(1-isopropyl-7-(methylsulfonyl)-3,4-dihydrobenzo[4,5]imidazo[1,2-a]pyrazin-2(1H)-yl)-4-(trifluoromethyl)pyrimidine-5-carboxylate] are above 3.33 µM, 1.16 µM, 17.3 µM and 4.62 µM.
For the compound `CC(=O)c1cnc(N2CCn3c(cc4ccc(S(C)(=O)=O)cc43)[C@H]2C(C)C)nc1C(F)(F)F` [Compound E22a, (R)-1-(2-(1-isopropyl-7-(methylsulfonyl)-3,4-dihydropyrazino[1,2-a]indol-2(1H)-yl)-4-(trifluoromethyl)pyrimidin-5-yl)ethanone], the affinity on LXR β LBD protein corresponds to a Ki of 0.012 µM. At LBD of LXRβ [2], this compound gave an EC50 of 0.107 µM.
Regarding `CC(C)[C@H]1c2nc3cc(CO)c(S(C)(=O)=O)cc3n2CCN1c1ncc(C(=O)O)c(C(F)(F)F)n1` (single isomer, unassigned) [Compound E14b], the Ki on LXR α LBD protein (read-out: LXRα BINDING Ki) was above 3.33 µM; at LXR β LBD protein, above 2.5 µM. For the same compound, the EC50 at LBD of LXRα and at LBD of LXRβ [1] was above 20 µM each time.
At LXR β LBD protein, `CC(O)c1cnc(N2CCn3c(cc4ccc(S(C)(=O)=O)cc43)C2C(C)C)nc1C(F)(F)F` (single isomer, unassigned) [Compound E24b, 1-(2-(1-isopropyl-7-(methylsulfonyl)-3,4-dihydropyrazino[1,2-a]indol-2(1H)-yl)-4-(trifluoromethyl)pyrimidin-5-yl)ethanol] showed a Ki of 0.02 µM. Besides, a half-maximal effect at LBD of LXRβ [2] (EC50) was put at 0.15 µM.
Taken in the same sequence, the figures for `CC(C)[C@@H]1c2cc3ccc(S(C)(=O)=O)cc3n2CCN1c1ncc(C(C)(C)O)c(C(F)(F)F)n1` [Compound E23a, (R)-2-(2-(1-isopropyl-7-(methylsulfonyl)-3,4-dihydropyrazino[1,2-a]indol-2(1H)-yl)-4-(trifluoromethyl)pyrimidin-5-yl)propan-2-ol] were 0.021 µM and 0.306 µM.
For `Cc1nc(N2CCn3c(nc4cc(CO)c(S(C)(=O)=O)cc43)[C@H]2C(C)C)ncc1CO` [Compound E19, (R)-(2-(8-(hydroxymethyl)-1-isopropyl-7-(methylsulfonyl)-3,4-dihydrobenzo[4,5]imidazo[1,2-a]pyrazin-2(1H)-yl)-4-methylpyrimidin-5-yl)methanol], the figures for the inhibition constant (Ki) at LXR α LBD protein (setting [3]) and at LXR β LBD protein were above 3.33 µM and above 2.5 µM, respectively. Also, the EC50 at LBD of LXRα and at LBD of LXRβ [1] was above 20 µM throughout.

(Values after patent US9073931B2, “Liver X receptor modulators” (Vitae Pharmaceuticals, Inc., priority 2012, dated 2015).)
